Data published in US12553903B2, “Ivaltinostat combination therapy for treating pancreatic cancer” (CG Pharmaceuticals, Inc, priority 2023, dated 2026).

Key:
[1] = tested on: pancreatic cancer; details: 1250 mg/m^2 twice daily for 2 weeks followed by a 1-week rest, first line; cited from earlier work
[2] = tested on: patients with advanced PDAC; assay: Phase II safety and adverse events (NCI-CTCAE v4.0); format: in vivo; details: for patients with dose reduced due to occurrence of AEs: three of 24 patients
Experimental: (§1) Tumor evaluation was performed at baseline, at the end of every two cycles, and/or at the end of the trial. For patients with measurable/non-measurable lesions, the Response Evaluation Criteria in Solid Tumors version 1.1 was used to evaluate target/non-target lesions. Serial measurements of carbohydrate antigen 19-9 (CA19-9) levels were performed at baseline and at the beginning of each treatment cycle. Patients were followed up for survival until death or study closure. Safety evaluation included vital signs, adverse events (AEs), adverse drug reactions, serious AEs, ECG, and clinic al laboratory tests, which were performed on days 1, 8 and 15 each cycle. AEs were graded according to the Common Terminology Criteria for Adverse Events, version 4.0, by the National Cancer Institute.
(§2) Full analysis set (FAS), per protocol (PP), and safety set analysis were defined according to the study protocol. FAS was defined as patients who had been evaluated for tumor response at least once after baseline. The PP analysis set included patients who received at least 70% and more of the intended study drug throughout the treatment period and without any significant violation of the protocol.

[3] = clinical; details: human, in vivo, iv
Experimental: The MTD was defined as the dose at which one or zero patients developed a DLT among six-patient cohort. Based on the 3+3 dose escalation design, each cohort consists of three or six subjects. If one in three subjects had experienced DLT in a specific dose, the dose was administered to an additional three subjects and a total of six patients were checked for the occurrence of DLT. If two or more subjects in any cohort had experienced a DLT, the previous dose was considered MTD, and the dose escalation ended. […] Gemcitabine and erlotinib were administered as fixed doses; gemcitabine (1000 mg/m^2 intravenously), and erlotinib (100 mg/day orally), whereas ivaltinostat was administered according to the dose level for each cohort. Each cycle consisted of 28 days. Both ivaltinostat and gemcitabine were administered on days 1, 8, and 15 and erlotinib was administrate d daily for each 28-day cycle.

[4] = tested on: patients with unresectable pancreatic ductal adenocarcinoma (PDAC); format: in vivo
Description: The present disclosure discloses a phase I/II study that evaluated the safety and efficacy of the histone deacetylase (HDAC) inhibitor, ivaltinostat, in combination with gemcitabine and erlotinib for advanced pancreatic ductal adenocarcinoma (PDAC). Patients diagnosed with unresectable, histologically confirmed PDAC who had not undergone previous therapy were eligible. […] In phase II, patients received a six-cycle treatment with the MTD of ivaltinostat determined in phase I. The primary endpoint was the objective response rate (ORR). Secondary endpoints included overall survival (OS), disease control rate (DCR), and progression-free survival (PFS). The MTD of ivaltinostat for the phase II trial was determined to be 250 mg/m^2. In phase II, 24 patients were enrolled. The median OS and PFS were 8.6 (95% confidence interval [CI]: 5.3-11.2) and 5.3 months (95% CI: 3.7-5.8). Of the 16 patients evaluated for response, ORR and DCR were 25.0% and 93.8% with a median OS/PFS of 10.8 (95% CI: 8.3-16.7)/5.8 (95% CI: 4.6-6.7) months.
One study disclosed herein was a single-arm phase I/II clinical study. The study evaluated the efficacy and safety of ivaltinostat in combination with gemcitabine and erlotinib for advanced pancreatic cancer. […] The DLT was assessed according to the National Cancer Institute Common Toxicity Criteria version 4.0. […]

[5] = tested on: advanced pancreatic ductal adenocarcinoma (PDAC); assay: Phase II efficacy (ORR, DCR, OS, PFS); format: in vivo, human
Experimental: Both ivaltinostat and gemcitabine were administered via the same protocol as that in the phase I study, until development of unacceptable toxicity or disease progression. The entire treatment period was six cycles and could be extended to 12 cycles if the patients wanted to continue the regimen and the principal investigator agreed. Tumor assessment was evaluated at the end of every two cycles. Dose reduction or delay could be applied for intolerant patients according to the study protocol.
The primary endpoint was the ORR, which was defined as the rate (%) of patients who had best tumor assessment with complete response (CR) or partial response (PR) during the treatment period. Secondary endpoints included disease control rate (DCR), OS, and progression-free survival (PFS). DCR was defined as the rate (%) of patients who had best tumor assessment with CR, PR, or stable disease (SD) during the treatment period. OS was defined as the time from the date of the first enrollment to the date of death from any cause. Patients who were still alive or withdrew at the date of cut off were censored. PFS was defined as the time from the date of the first enrollment to the date of tumor progression or to the date of death from any cause. Patients were followed up for survival until death, withdrawal, or study closure.
as §1
as §2, with “the protocol. The safety cohort included all patients who had received the study drug at least once.” for “the protocol.”
Statistical Analysis: To identify MTD and DLT, the 3+3 dose escalation design was utilized and based on the method of determining MTD described above. In total, 10 patients were enrolled in the phase I study. The estimated sample size for the phase II study after the determination of MTD was calculated based on Simon's 2 stage design25 with a reference of published data of 8.6% ORR from a phase III randomized controlled trial of gemcitabine and erlotinib combination therapy. Assuming a difference in response probability of study drug=20%, α=0.05, and statistical power=90%, the estimated minimally required sample size for phase II study based on binomial distribution probability may be 9 for initial stage and increase to a total of 24 patients if more than one patient had responded to the study drug during the initial stage. The safety analysis included all patients who had received a single dose of the study drug. The main efficacy analysis was based on the FAS population, defined as a group of patients who had received at least single dose of study drug and had at least one tumor response evaluation after the baseline assessment.

[6] = tested on: advanced PDAC; details: with gemcitabine; cited from earlier work
[7] = tested on: germline BRCA-mutated metastatic pancreatic cancer; details: cited from earlier work
[8] = tested on: PDAC after gemcitabine-based therapy; details: with bortezomib, seven patients enrolled; cited from earlier work
[9] = tested on: advanced PDAC; details: combined with gemcitabine; cited from earlier work
[10] = tested on: metastatic pancreatic cancer; details: first line; cited from earlier work
[11] = Grade 3, treatment-related, phase II (n = 24)
[12] = Grade 4, treatment-related, phase II (n = 24)
[13] = Total grade 3 and 4, treatment-related, phase II (n = 24)
[14] = FAS analysis (n=16), with gemcitabine + erlotinib

Compound: CCCCCOC(=O)Nc1nc(=O)n([C@@H]2O[C@H](C)[C@@H](O)[C@H]2O)cc1F [Capecitabine, capecitabine]
- efficacy and tolerability [1]: effective and tolerable

Compound: C#Cc1cccc(Nc2ncnc3cc(OCCOC)c(OCCOC)cc23)c1 [erlotinib, reference compound]
- patients with dose reduced ([2]; phase II, 24 patients): no patient received a reduced dose

Compound: Nc1ccn([C@@H]2O[C@H](CO)[C@@H](O)C2(F)F)c(=O)n1 [gemcitabine, reference compound]
- patients with dose reduced due to occurrence of AEs ([2]; phase II): 12.5%

Compound: CN(C)CCCNC(=O)/C(=C/CCCCC(=O)NO)COc1cccc2ccccc12.O=P(O)(O)O [ivaltinostat, (E)-N1-(3-(dimethylamino)propyl)-N8-hydroxy-2-((naphthalen-1-yloxy)methyl)oct-2-enediamide phosphate]
- AUC(0-t) ([3]; 187.5 mg/m2): 28300 ng·h/mL
- Cmax ([3]; 187.5 mg/m2): 9550 ng/mL
- half-life ([3]; 187.5 mg/m2): 7.3 h
- AUC(0-t) ([3]; 250 mg/m2): 35100 ng·h/mL
- Cmax ([3]; 250 mg/m2): 8060 ng/mL
- half-life ([3]; 250 mg/m2): 5.7 h
- AUC(0-t) ([3]; 312.5 mg/m2): 65400 ng·h/mL
- Cmax ([3]; 312.5 mg/m2): 12800 ng/mL
- half-life ([3]; 312.5 mg/m2): 6.6 h
- Anemia, % of patients [2, 11]: (16.7) %
- Anemia, number of patients [2, 11]: 4
- Anorexia, % of patients [2, 11]: (8.3) %
- Anorexia, number of patients [2, 11]: 2
- Fatigue, % of patients [2, 11]: (8.3) %
- Fatigue, number of patients [2, 11]: 2
- Febrile neutropenia, % of patients [2, 11]: (8.3) %
- Febrile neutropenia, number of patients [2, 11]: 2
- Neutropenia, % of patients [2, 11]: (12.5) %
- Pneumonia, number of patients [2, 11]: 0
- Thrombocytopenia, % of patients [2, 11]: (16.7) %
- Thrombocytopenia, number of patients [2, 11]: 4
- Neutropenia, number of patients ([2]; Grade 3, treatment-related, phase II (n = 24), with gemcitabine + erlotinib): 3
- Anemia, number of patients [2, 12]: 0
- Anorexia, number of patients [2, 12]: 0
- Fatigue, number of patients [2, 12]: 0
- Febrile neutropenia, number of patients [2, 12]: 0
- Neutropenia, % of patients [2, 12]: (20.8) %
- Neutropenia, number of patients [2, 12]: 5
- Pneumonia, % of patients [2, 12]: (4.2) %
- Pneumonia, number of patients [2, 12]: 1
- Thrombocytopenia, % of patients [2, 12]: (12.5) %
- Thrombocytopenia, number of patients [2, 12]: 3
- Anorexia, % of patients [2, 13]: (8.3) %
- Anorexia, number of patients [2, 13]: 2
- Fatigue, % of patients [2, 13]: (8.3) %
- Fatigue, number of patients [2, 13]: 2
- Febrile neutropenia, % of patients [2, 13]: (8.3) %
- Febrile neutropenia, number of patients [2, 13]: 2
- Pneumonia, % of patients [2, 13]: (4.2) %
- Pneumonia, number of patients [2, 13]: 1
- ADR decreased appetite ([2]; phase II, 24 subjects): 11 events
- ADR decreased platelet count ([2]; phase II, 24 subjects): 15 events
- ADR nausea ([2]; phase II, 24 subjects): 10 events
- ADR rash ([2]; phase II, 24 subjects): 11 events
- ADR vomiting ([2]; phase II, 24 subjects): 10 events
- ADRs with grade 3 or 4 severity ([2]; phase II, 24 subjects): 26
- AEs reported ([2]; phase II, 24 subjects): 218
- grade 5 (death) events ([2]; phase II, 24 subjects): no grade 5 (death) events
- adverse drug reactions (ADRs) ([2]; phase II, all 24 subjects): 114
- patients with dose reduced due to occurrence of AEs ([2]; phase II): 12.5%
- dose-limiting toxicity (DLT) ([4]; human, in vivo, 28 day): One DLT, a febrile neutropenia of grade 3
- maximum tolerable dose (MTD) / recommended dose for phase II ([4]; iv days 1, 8, 15 with gemcitabine 1000 mg/m2 iv and erlotinib 100 mg/day orally, 28-day cycle): 250 mg/m^2
- PRs, % of patients ([5]; FAS analysis (n=16)): 25%
- PRs, number of patients ([5]; FAS analysis (n=16)): 4
- SDs, % of patients ([5]; FAS analysis (n=16)): 68.8%
- SDs, number of patients ([5]; FAS analysis (n=16)): 11
- median OS ([5]; FAS analysis (n=16)): 10.8 months
- median PFS ([5]; FAS analysis (n=16)): 5.8 months
- DCR [5, 14]: 93.8%
- ORR [5, 14]: 25.0%
- DCR ([5]; PP analysis (n=10)): 100%
- ORR ([5]; PP analysis (n=10)): 30%
- PRs, % of patients ([5]; PP analysis (n=10)): 30%
- PRs, number of patients ([5]; PP analysis (n=10)): 3
- SDs, % of patients ([5]; PP analysis (n=10)): 70%
- SDs, number of patients ([5]; PP analysis (n=10)): 7
- median OS ([5]; PP analysis (n=10)): 11.7 months
- median PFS ([5]; PP analysis (n=10)): 5.9 months
- median OS ([5]; all patients (n=23), ivaltinostat 250 mg/m^2 + gemcitabine 1000 mg/m^2 + erlotinib 100 mg/day): 8.6 months
- median PFS ([5]; all patients (n=23), ivaltinostat 250 mg/m^2 + gemcitabine + erlotinib): 5.3 months

Compound: Nc1ccccc1NC(=O)c1ccc(CNc2nccc(-c3cccnc3)n2)cc1 [mocetinostat]
- clinical activity and toxicity [6]: showed only limited clinical activity

Compound: O=C(c1cc(Cc2n[nH]c(=O)c3ccccc23)ccc1F)N1CCN(C(=O)C2CC2)CC1 [olaparib]
- median PFS ([7]; maintenance after ≥16 weeks of platinum-based therapy, gBRCA mutations, placebo 3.8): 7.4 months
- HR for PFS vs. placebo ([7]; p=0.004): 0.53

Compound: Cc1[nH]c2ccccc2c1CCNCc1ccc(/C=C/C(=O)NO)cc1 [panovinostat]
- study outcome [8]: suspended due to lack of response and toxicity

Compound: CC(=O)Nc1ccc(C(=O)Nc2ccccc2N)cc1 [tacedinaline]
- clinical benefit vs gemcitabine alone [9]: no advantage over gemcitabine alone

Compound: FOLFIRINOX
- median progression-free survival (PFS) [10]: 6.4 months
- overall survival (OS) [10]: 11.1 months
